Test results: US20170057917A1, “Polymorphs of Lomitapide and its Salts” (Hetero Research Foundation, priority 2014, published 2017)

Experiment: Hygroscopicity of the amorphous form
Format: physicochemical
Conditions: solid amorphous form; normally amorphous Forms are hygroscopic

Question: Which hygroscopicity does the source give for CS(=O)(=O)O.O=C(NC1CCN(CCCCC2(C(=O)NCC(F)(F)F)c3ccccc3-c3ccccc32)CC1)c1ccccc1-c1ccc(C(F)(F)F)cc1 [Amorphous Lomitapide mesylate] here?
Answer: non-hygroscopic
